Data set [1] relates to PC-3. Briefly: Antiproliferative activity against human PC-3 cells assessed as inhibition of cell growth incubated for 48 hrs by MTT assay. Type of data set: functional, cell-based. Particulars: PC-3, 48 h.
In data set [2] the test system is HepG2. Briefly: Antiproliferative activity against human HepG2 cells assessed as inhibition of cell growth incubated for 48 hrs by MTT assay. In kind it is functional, cell-based. Particulars: HepG2, 48 h.
In data set [3] the test system is NCI/ADR-RES. The experiment in a line: Antiproliferative activity against human MCF7ADR cells assessed as inhibition of cell growth incubated for 48 hrs by MTT assay. Type of data set: functional, cell-based.
The subject of data set [4] is MCF7. The experiment in a line: Antiproliferative activity against human MCF7 cells assessed as inhibition of cell growth incubated for 48 hrs by MTT assay. Type of data set: functional, cell-based. Particulars: MCF7, 48 h.
Data set [5] relates to A549. The experiment in a line: Antiproliferative activity against human A549 cells assessed as inhibition of cell growth incubated for 48 hrs by MTT assay. Type of data set: functional, cell-based. Particulars: A549, 48 h.
A short description of data set [6]: Selectivity index, ratio of IC50 for antiproliferative activity against human MCF7 cells assessed as inhibition of cell growth to IC50 for antiproliferative activity against human MCF7ADR cells assessed as inhibition of cell growth. Type of data set: functional.
The test system of data set [7] is A549/TR. The experiment in a line: Antiproliferative activity against human A549/Taxol cells assessed as inhibition of cell growth incubated for 48 hrs by MTT assay. In kind it is functional, cell-based.
A short description of data set [8]: Selectivity index, ratio of IC50 for antiproliferative activity against human A549 cells assessed as inhibition of cell growth to IC50 for antiproliferative activity against human A549/Taxol cells assessed as inhibition of cell growth. In kind it is functional.
Data set [9] in a line: Cytotoxicity against human BEAS-2B cells assessed as inhibition of cell growth incubated for 48 hrs by MTT assay. In kind it is toxicity, cell-based.
A short description of data set [10]: Cytotoxicity against human MCF-10A cells assessed as inhibition of cell growth incubated for 48 hrs by MTT assay. Type of data set: toxicity, cell-based.

Consider `O=[N+]([O-])OCC(COc1ccc2cc1Oc1ccc(cc1)CCc1cccc(OCC(CO[N+](=O)[O-])O[N+](=O)[O-])c1Oc1cccc(c1)CC2)O[N+](=O)[O-]` (stereo unspecified), for which the IC50 is over 20 µM in data set [1]; over 20 µM in [2]; over 20 µM in [3]; over 20 µM in data set [4]; over 40 µM in data set [5].

Take `O=S(=O)(c1ccccc1)c1c(OCCOc2cccc3c2Oc2cccc(c2)CCc2ccc(O)c(c2)Oc2ccc(cc2)CC3)no[n+]1[O-]`: the IC50 in data set [1] was found to be 2.92 µM; in data set [2] it was 1.69 µM; in data set [7], 3.39 µM; in [3], 0.9 µM; in [4], 9.1 µM; in data set [5], 19.1 µM. The “Ratio IC50” value is given as 10 in [6] and 6 in data set [8]. Moreover, in data set [9], the IC50 at 48 h is 13.7 µM.

For the molecule `O=S(=O)(c1ccccc1)c1c(OCCCCCCOc2ccc3cc2Oc2ccc(cc2)CCc2cccc(OCCCCCCOc4no[n+]([O-])c4S(=O)(=O)c4ccccc4)c2Oc2cccc(c2)CC3)no[n+]1[O-]`, the IC50 is over 20 µM in data set [1]; over 20 µM in data set [2]; over 20 µM in [7]; over 3 µM in data set [3]; 27.8 µM in [4]; over 40 µM in [5]. The “Ratio IC50” value in data set [6] was under 9.

With `O=S(=O)(c1ccccc1)c1c(OC/C=C\COc2ccc3cc2Oc2ccc(cc2)CCc2cccc(OC/C=C\COc4no[n+]([O-])c4S(=O)(=O)c4ccccc4)c2Oc2cccc(c2)CC3)no[n+]1[O-]`, in data set [6], the “Ratio IC50” value is on record as under 7. For the same molecule, the IC50 is over 3 µM in data set [3] and over 20 µM in [4].

As for `COc1cccc2c1C(=O)c1c(O)c3c(c(O)c1C2=O)C[C@@](O)(C(=O)CO)C[C@@H]3O[C@H]1C[C@H](N)[C@H](O)[C@H](C)O1` [DOXORUBICIN], in data set [6], the “Ratio IC50” value is on record as under 0.001. Moreover, the IC50 in data set [3] is 32 µM; in data set [4], under 0.025 µM. Moreover, the IC50 at 48 h in data set [10] and in [9] was under 2.5 µM in each case.

`O=C(/C=C\COc1no[n+]([O-])c1S(=O)(=O)c1ccccc1)Oc1ccc2cc1Oc1ccc(cc1)CCc1cccc(OC(=O)/C=C\COc3no[n+]([O-])c3S(=O)(=O)c3ccccc3)c1Oc1cccc(c1)CC2`: the IC50 in data set [1] is over 20 µM; in data set [2], over 20 µM; in [5], over 40 µM.

Regarding `O=S(=O)(c1ccccc1)c1c(OCCCOc2ccc3cc2Oc2ccc(cc2)CCc2cccc(OCCCOc4no[n+]([O-])c4S(=O)(=O)c4ccccc4)c2Oc2cccc(c2)CC3)no[n+]1[O-]`, the IC50 in [1] was over 20 µM; in [2], over 20 µM; in [7], 10.2 µM; in data set [3] it was 1 µM; in data set [4], 21 µM; in data set [5], 38.4 µM. Besides, the figures for the “Ratio IC50” value in data set [6] and in data set [8] were 21 and 4, respectively.

On to `O=S(=O)(c1ccccc1)c1c(Oc2ccc(COc3cccc4c3Oc3cccc(c3)CCc3ccc(O)c(c3)Oc3ccc(cc3)CC4)cc2)no[n+]1[O-]`, for which the IC50 in data set [1] is over 20 µM; in [2] it was over 20 µM; in data set [3], over 3 µM; in data set [4], over 20 µM; in data set [5], over 40 µM. The “Ratio IC50” value in data set [6] is under 7.

Turning to `O=C(/N=c1/c[n+](-c2ccccc2)[n-]o1)Oc1ccc2cc1Oc1ccc(cc1)CCc1cccc(OC(=O)/N=c3/c[n+](-c4ccccc4)[n-]o3)c1Oc1cccc(c1)CC2`, the IC50 is over 20 µM in data set [1], over 20 µM in [2] and over 40 µM in [5].

Take `O=C(/C=C\COc1no[n+]([O-])c1S(=O)(=O)c1ccccc1)Oc1cccc2c1Oc1cccc(c1)CCc1ccc(O)c(c1)Oc1ccc(cc1)CC2`: the IC50 in [1] is over 20 µM; in [2], 6.46 µM; in [7] it was over 20 µM; in data set [3], over 3 µM; in [4] it was 13.7 µM; in data set [5], over 40 µM. In addition, in data set [6], the “Ratio IC50” value is on record as under 5.

Regarding `O=S(=O)(c1ccccc1)c1c(OCCCCOc2ccc3cc2Oc2ccc(cc2)CCc2cccc(OCCCCOc4no[n+]([O-])c4S(=O)(=O)c4ccccc4)c2Oc2cccc(c2)CC3)no[n+]1[O-]`, the IC50 in [1] is over 20 µM; in [2] it was over 20 µM; in data set [7] it was over 20 µM; in data set [3] it was over 3 µM; in data set [4], over 20 µM; in data set [5] it was over 40 µM. For the same molecule, in [6], the “Ratio IC50” value is recorded as under 7.

In the case of `CC(=O)CCCCn1c(=O)c2c(ncn2C)n(C)c1=O` [PENTOXIFYLLINE], the results for the IC50 in data set [7] and in data set [5] were over 20 µM and 11 µM, respectively. In addition, the “Ratio IC50” value in data set [8] is on record as under 0.5.

Take `O=C(CCCOc1no[n+]([O-])c1S(=O)(=O)c1ccccc1)Oc1cccc2c1Oc1cccc(c1)CCc1ccc(O)c(c1)Oc1ccc(cc1)CC2`: the IC50 is over 20 µM in data set [1], over 20 µM in [2] and over 40 µM in [5].

For `O=C(CCCCCOc1no[n+]([O-])c1S(=O)(=O)c1ccccc1)Oc1cccc2c1Oc1cccc(c1)CCc1ccc(O)c(c1)Oc1ccc(cc1)CC2`, the values for the IC50 in [1], in [2] and in data set [5] were over 20 µM, over 20 µM and over 40 µM, respectively.

In the case of `O=S(=O)(c1ccccc1)c1c(OCCOc2ccc3cc2Oc2ccc(cc2)CCc2cccc(OCCOc4no[n+]([O-])c4S(=O)(=O)c4ccccc4)c2Oc2cccc(c2)CC3)no[n+]1[O-]`, the IC50 was over 20 µM in data set [1]; over 20 µM in data set [2]; 11.5 µM in [7]; 3.2 µM in [3]; 24.9 µM in data set [4]; 41.2 µM in data set [5]. In addition, the “Ratio IC50” value in data set [6] is 8; in [8], 4.

As for `O=C(CCCCCOc1no[n+]([O-])c1S(=O)(=O)c1ccccc1)Oc1ccc2cc1Oc1ccc(cc1)CCc1cccc(OC(=O)CCCCCOc3no[n+]([O-])c3S(=O)(=O)c3ccccc3)c1Oc1cccc(c1)CC2`, the IC50 in data set [1] is over 20 µM; in data set [2], over 20 µM; in data set [7], over 20 µM; in [3], over 3 µM; in data set [4] it was over 20 µM; in [5], over 40 µM. Also, the “Ratio IC50” value in data set [6] is listed as under 7.

Take `O=S(=O)(c1ccccc1)c1c(OCCCOc2ccc3cc2Oc2ccc(cc2)CCc2cccc(O)c2Oc2cccc(c2)CC3)no[n+]1[O-]`: the IC50 came out at 1.2 µM in [1]; 4.79 µM in data set [7]; 0.24 µM in data set [3]; 8.5 µM in data set [4]; 33.6 µM in data set [5]. The “Ratio IC50” value in data set [6] is 35; in data set [8], 7. Besides, the IC50 at 48 h in data set [9] was under 2.5 µM.

As for `CO/N=[N+](\[O-])N1CCN(Cc2ccc3c(c2O)Oc2cccc(c2)CCc2ccc(O)c(c2)Oc2ccc(cc2)CC3)CC1`, the IC50 was over 20 µM in data set [1], over 20 µM in data set [2] and over 40 µM in [5].

Regarding `O=S(=O)(c1ccccc1)c1c(OCCCCOc2cccc3c2Oc2cccc(c2)CCc2ccc(O)c(c2)Oc2ccc(cc2)CC3)no[n+]1[O-]`, the IC50 in data set [1] is over 20 µM; in [2] it was over 20 µM; in [7], 5.92 µM; in data set [3], 0.098 µM; in [4], over 20 µM; in data set [5], over 40 µM. For the same molecule, the “Ratio IC50” value in data set [6] is given as over 204; in [8], over 7. The values for the IC50 at 48 h in data set [10] and in [9] were 8.32 µM and over 20 µM, respectively.

Consider `O=S(=O)(c1ccccc1)c1c(OCCOCCOc2cccc3c2Oc2cccc(c2)CCc2ccc(O)c(c2)Oc2ccc(cc2)CC3)no[n+]1[O-]`, for which the IC50 is 4.41 µM in data set [1]; over 20 µM in data set [2]; 12.1 µM in data set [7]; 1.01 µM in data set [3]; 15.2 µM in [4]; over 40 µM in [5]. Further, the entries for the “Ratio IC50” value in data set [6] and in [8] were 15 and over 3, respectively. In addition, the IC50 at 48 h is under 2.5 µM in [10] and 5.14 µM in data set [9].

With `CCO/N=[N+](\[O-])N1CCN(Cc2ccc3c(c2O)Oc2cccc(c2)CCc2ccc(O)c(c2)Oc2ccc(cc2)CC3)CC1`, the IC50 in data set [1] was over 20 µM; in data set [2], over 20 µM; in data set [5] it was over 40 µM.

Turning to `O=S(=O)(c1ccccc1)c1c(OC/C=C\COc2cccc3c2Oc2cccc(c2)CCc2ccc(O)c(c2)Oc2ccc(cc2)CC3)no[n+]1[O-]`, in data set [6], the “Ratio IC50” value was under 7. The IC50 is over 20 µM in [7], over 3 µM in [3], over 20 µM in data set [4] and over 40 µM in [5].

As to `O=C(CCCOc1no[n+]([O-])c1S(=O)(=O)c1ccccc1)Oc1ccc2cc1Oc1ccc(cc1)CCc1cccc(OC(=O)CCCOc3no[n+]([O-])c3S(=O)(=O)c3ccccc3)c1Oc1cccc(c1)CC2`, the IC50 in data set [1] was over 20 µM; in [2], over 20 µM; in [7] it was 15.1 µM; in data set [3], 0.68 µM; in data set [4], 15.2 µM; in data set [5] it was 39.5 µM. Also, the “Ratio IC50” value is given as 22 in [6] and 3 in [8].

On to `O=S(=O)(c1ccccc1)c1c(OCCOc2ccc3cc2Oc2ccc(cc2)CCc2cccc(O)c2Oc2cccc(c2)CC3)no[n+]1[O-]`, for which the IC50 worked out at 2.69 µM in data set [1]; 5.36 µM in data set [7]; 0.2 µM in data set [3]; 10.9 µM in data set [4]; 15.2 µM in [5]. The “Ratio IC50” value is reported as 55 in [6] and 3 in [8].

These data come from ChEMBL document CHEMBL6103624, “Design, Synthesis, and Biological Evaluation of Marchantin C-NO Donor Hybrids for Overcoming Pgp-Mediated Drug Resistance by Targeting Lysosome” (J Med Chem, 2025).
